According to US9717243B2, “Piperidinecarboxylic acid derivatives as fungicides” (priority 2013, dated 2017):
Where two headings read alike, the source gives them in different places.

Assay: LogP by HPLC on reversed phase columns (EEC directive 79/831 Annex V.A8)
Format: physicochemical
Protocol: Calibration was done with straight-chain alkan2-ones (with 3 to 16 carbon atoms) with known LogP values (measurement of LogP values using retention times with linear interpolation between successive alkanones). Lambda-max-values were determined using UV-spectra from 200 nm to 400 nm and the peak values of the chromatographic signals.

[1] = Table 1, compounds of formula (I), LC-UV, acidic range, 0.1% formic acid in water and acetonitrile as eluent
[2] = pH 2.7, synthesis intermediates in preparation examples, read-out: LogP (pH 2.7)

Compound | Log P[a] | also measured
COCCOC(=O)C1(C(N)=S)CCN(C(=O)Cn2nc(C(F)F)cc2C(F)F)CC1 [II-18] | 2.10 | 
COC(=O)C1(C#N)CCN(C(=O)Cn2nc(C(F)F)cc2C)CC1 [IV-9] | 1.89 | 
N#CC1(C(=O)O)CCN(C(=O)Cn2nc(C(F)F)cc2C(F)F)CC1 [IV-12] | 1.44 | 
COC(=O)C1(C(N)=S)CCN(C(=O)Cn2nc(C(F)F)cc2C)CC1 [II-7] | 1.68 | 
COC(=O)C1(c2nc(C3=NOC(c4c(F)cccc4F)C3)cs2)CCN(C(=O)Cn2nc(C(F)(F)F)cc2C)CC1 (stereo not drawn) [Example I-69] | 3.55 | 
CCOC(=O)C1(c2nc(C3=NOC(c4ccccc4)C3)cs2)CCN(C(=O)Cn2nc(C(F)F)cc2C(F)F)CC1 (stereo not drawn) [Example I-25] | 3.76 | 
COC(=O)C1(c2nc(C3=NOC(c4c(Cl)cccc4OS(C)(=O)=O)C3)cs2)CCN(C(=O)Nc2cn(C)nc2C(F)F)CC1 (stereo not drawn) [Example I-14] | 2.73 | 
COC(=O)C1(c2nc(C3=NOC(c4ccccc4-c4ccccc4)C3)cs2)CCN(C(=O)Cn2nc(C(F)F)cc2C)CC1 (stereo not drawn) [Example I-61] |  | Log P[a] [1]: 4.09
Cn1nc(C(F)F)cc1NC(=O)Oc1ccccc1 [phenyl [3-(difluoromethyl)-1-methyl-1H-pyrazol-5-yl]carbamate] |  | chromatographic logP [2]: 2.18
CC(C)(C)OC(=O)C1(C#N)CCN(C(=O)Cc2ccc(Cl)cc2)CC1 [IV-24] | 3.37 | 
O=C(Cn1nc(C(F)F)cc1C(F)F)N1CCC(C(=O)OCc2ccccc2)(c2nc(C3=NOC(c4ccccc4)C3)cs2)CC1 (stereo not drawn) [Example I-38] | 4.26 | 
CS(=O)(=O)Oc1ccccc1C1CC(C(=O)CCl)=NO1 (stereo not drawn) [2-[3-(chloroacetyl)-4,5-dihydro-1,2-oxazol-5-yl]phenyl methanesulfonate] |  | chromatographic logP [2]: 2.54
COC(=O)C1(C(N)=S)CCN(C(=O)Cn2nc(C(F)F)cc2C(F)F)CC1 [II-11, methyl 1-{[3,5-bis(difluoromethyl)-1H-pyrazol-1-yl]acetyl}-4-carbamothioylpiperidine-4-carboxylate] |  | chromatographic logP (Table 4, compounds of formula (II), LC-UV, acidic range, 0.1% formic acid in water and acetonitrile as eluent, read-out: Log P[a]): 1.98
C=CCOC(=O)C1(c2nc(C3=NOC(c4ccccc4-c4ccccc4)C3)cs2)CCN(C(=O)Cn2nc(C(F)F)cc2C(F)F)CC1 (stereo not drawn) [Example I-42] |  | Log P[a] [1]: 4.72
C#CCOc1ccccc1C1CC(c2csc(C3(C(=O)OC)CCN(C(=O)Nc4cc(C(F)F)nn4C)CC3)n2)=NO1 (stereo not drawn) [Example I-15] | 3.00 | 
COC(=O)C1(C#N)CCN(C(=O)Nc2cc(C)ccc2C)CC1 [IV-19] | 2.26 | 
COC(=O)C1(c2nc(C3=NOC(c4c(Cl)cccc4OS(C)(=O)=O)C3)cs2)CCN(C(=O)Nc2cn(C(F)F)nc2C)CC1 (stereo not drawn) [Example I-13] | 2.86 | 
CC(C)(C)OC(=O)C1(C#N)CCN(C(=O)Nc2ccccc2)CC1 [IV-20] | 2.82 | 
COC(=O)C1(c2nc(C3=NOC(c4ccccc4-c4ccccc4)C3)cs2)CCN(C(=O)Cn2nc(C(F)F)cc2C(F)F)CC1 (stereo not drawn) [Example I-2] |  | Log P[a] [1]: 4.36
COC(=O)C1(C(N)=S)CCN(C(=O)Nc2cc(C(F)F)ccc2C(F)F)CC1 [II-13] | 2.23 | 

Compound | Log P[a] | also measured
COC(=O)C1(c2nc(C3=NOC(c4c(Cl)cccc4OS(C)(=O)=O)C3)cs2)CCN(C(=O)Cn2nc(C(F)F)cc2C)CC1 (stereo not drawn) [Example I-60] | 3.19 | 
CSCCOC(=O)C1(c2nc(C3=NOC(c4c(Cl)cccc4OS(C)(=O)=O)C3)cs2)CCN(C(=O)Cn2nc(C(F)F)cc2C(F)F)CC1 (stereo not drawn) [Example I-47] | 3.85 | 
CC(C)(C)OC(=O)C1(C#N)CCN(C(=S)Nc2ccc(OC(F)(F)F)cc2)CC1 [IV-27] | 4.01 | 
CS(=O)(=O)Oc1cccc(Cl)c1C1CC(C(=O)CBr)=NO1 (stereo not drawn) [2-[3-(bromoacetyl)-4,5-dihydro-1,2-oxazol-5-yl]-3-chlorophenyl methanesulfonate] |  | chromatographic logP [2]: 2.93
CC(C)OC(=O)C1(c2nc(C3=NOC(c4ccccc4-c4ccccc4)C3)cs2)CCN(C(=O)Cn2nc(C(F)F)cc2C(F)F)CC1 (stereo not drawn) [Example I-30] |  | Log P[a] [1]: 4.92
C#CCOc1ccccc1C1CC(c2csc(C3(C(=O)OC4CCOC4)CCN(C(=O)Cn4nc(C(F)F)cc4C(F)F)CC3)n2)=NO1 (stereo not drawn) [Example I-58] | 3.55 | 
CCOC(=O)C1(c2nc(C3=NOC(c4ccccc4-c4ccccc4)C3)cs2)CCN(C(=O)Cn2nc(C(F)F)cc2C(F)F)CC1 (stereo not drawn) [Example I-23] |  | Log P[a] [1]: 4.64
CC(C)(C)OC(=O)C1(C#N)CCN(C(=S)Nc2cccc(Cl)c2)CC1 [IV-26] | 3.72 | 
CC(C)OC(=O)C1(c2nc(C3=NOC(c4ccccc4)C3)cs2)CCN(C(=O)Cn2nc(C(F)F)cc2C(F)F)CC1 (stereo not drawn) [Example I-32] | 4.04 | 
N#CC1(C(=O)O)CCN(C(=S)Nc2cccc(Cl)c2)CC1 [IV-32] | 2.01 | 
CSCCOC(=O)C1(C#N)CCN(C(=O)Cn2nc(C(F)F)cc2C(F)F)CC1 [IV-3] | 2.78 | 
COC(=O)C1(C#N)CCN(C(=O)Nc2cn(C)nc2C(F)F)CC1 [IV-34] | 1.40 | 
C#CCOc1ccc(F)c(F)c1C1CC(c2csc(C3(C(=O)OC)CCN(C(=O)Nc4cc(C(F)(F)F)nn4C)CC3)n2)=NO1 (stereo not drawn) [Example I-81] | 3.35 | 
COC(=O)C1(c2nc(C3=NOC(c4c(Cl)cccc4OS(C)(=O)=O)C3)cs2)CCN(C(=O)Cn2nc(C)cc2C(F)F)CC1 (stereo not drawn) [Example I-74] | 3.15 | 
CC(C)(C)OC(=O)C1(C#N)CCN(C(=S)Nc2ccccc2C(F)(F)F)CC1 [IV-25] | 3.50 | 
CC(C)OC(=O)C1(c2nc(C3=NOC(c4c(Cl)cccc4OS(C)(=O)=O)C3)cs2)CCN(C(=O)Cn2nc(C(F)F)cc2C(F)F)CC1 (stereo not drawn) [Example I-29] | 3.96 | 
COC(=O)C1(c2nc(C3=NOC(c4ccccc4OS(C)(=O)=O)C3)cs2)CCN(C(=O)Cn2nc(C(F)(F)F)cc2C)CC1 (stereo not drawn) [Example I-71] | 3.33 | 
COC(=O)C1(C(N)=S)CCN(C(=O)Nc2cc(C(F)(F)F)nn2C)CC1 [II-19] | 1.74 | 
CS(=O)(=O)Oc1cccc(Cl)c1C1CC(c2csc(C3(C(=O)OC4CCOC4)CCN(C(=O)Cn4nc(C(F)F)cc4C(F)F)CC3)n2)=NO1 (stereo not drawn) [Example I-53] | 3.39 | 
C#CCOc1ccccc1C1CC(c2csc(C3(C(=O)OC)CCN(C(=O)Cn4nc(C(F)(F)F)cc4C)CC3)n2)=NO1 (stereo not drawn) [Example I-72] | 3.71 | 

Compound | Log P[a] | also measured
COC(=O)C1(C(N)=S)CCN(C(=O)Nc2cn(C(F)F)nc2C)CC1 [II-14] | 1.30 | 
C#CCOc1ccc(F)c(F)c1C1CC(c2csc(C3(C(=O)OC)CCN(C(=O)Nc4cn(C(F)F)nc4C)CC3)n2)=NO1 (stereo not drawn) [Example I-18] | 3.04 | 
C#CCOc1ccccc1C1CC(c2csc(C3(C(=O)OC)CCN(C(=O)Nc4cn(C(F)F)nc4C)CC3)n2)=NO1 (stereo not drawn) [Example I-17] | 3.02 | 
C=CCOC(=O)C1(c2nc(C3=NOC(c4ccccc4)C3)cs2)CCN(C(=O)Cn2nc(C(F)F)cc2C(F)F)CC1 (stereo not drawn) [Example I-44] | 3.85 | 
CSCCOC(=O)C1(c2nc(C3=NOC(c4ccccc4-c4ccccc4)C3)cs2)CCN(C(=O)Cn2nc(C(F)F)cc2C(F)F)CC1 (stereo not drawn) [Example I-48] |  | Log P[a] [1]: 4.77
C#CCOC(=O)C1(C(N)=S)CCN(C(=O)Cn2nc(C(F)F)cc2C(F)F)CC1 [II-17] | 2.27 | 
COC(=O)C1(c2nc(C3=NOC(c4ccccc4-c4ccccc4)C3)cs2)CCN(C(=O)Cn2nc(C(F)(F)F)cc2C)CC1 (stereo not drawn) [Example I-68] |  | Log P[a] [1]: 4.49
COC(=O)C1(c2nc(C3=NOC(c4c(Cl)cccc4OS(C)(=O)=O)C3)cs2)CCN(C(=O)Cn2nc(C(F)(F)F)cc2C)CC1 (stereo not drawn) [Example I-67] | 3.55 | 
CC(C)(C)OC(=O)C1(C#N)CCN(C(=O)Cc2ccccc2)CC1 [IV-23] | 2.96 | 
CSCCOC(=O)C1(C(N)=S)CCN(C(=O)Cn2nc(C(F)F)cc2C(F)F)CC1 [II-2] | 2.49 | 
CC(C)(C)OC(=O)C1(C#N)CCN(C(=O)Nc2ccc(F)cc2)CC1 [IV-22] | 2.96 | 
C#CCOc1ccccc1C1CC(c2csc(C3(C(=O)OC)CCN(C(=O)Nc4cc(C(F)(F)F)nn4C)CC3)n2)=NO1 (stereo not drawn) [Example I-80] | 3.35 | 
CCOC(=O)C1(C#N)CCN(C(=O)Cn2nc(C(F)F)cc2C(F)F)CC1 [IV-11] | 2.55 | 
CS(=O)(=O)Oc1ccccc1C1CC(c2csc(C3(C(=O)OC4CCOC4)CCN(C(=O)Cn4nc(C(F)F)cc4C(F)F)CC3)n2)=NO1 (stereo not drawn) [Example I-57] | 3.21 | 
C#CCOc1ccc(F)c(F)c1C1CC(c2csc(C3(C(=O)OC)CCN(C(=O)Nc4cn(C)nc4C(F)F)CC3)n2)=NO1 (stereo not drawn) [Example I-21] | 2.88 | 
C#CCOc1ccccc1C1CC(c2csc(C3(C(=O)OCC=C)CCN(C(=O)Cn4nc(C(F)F)cc4C(F)F)CC3)n2)=NO1 (stereo not drawn) [Example I-45] | 3.96 | 
CC(C)=CCN(C)C(=O)C1(C#N)CCN(C(=O)Nc2ccc(Cl)cc2)CC1 [IV-46] | 3.03 | 
C#CCOc1ccccc1C1CC(c2csc(C3(C(=O)OCc4ccccc4)CCN(C(=O)Cn4nc(C(F)F)cc4C(F)F)CC3)n2)=NO1 (stereo not drawn) [Example I-39] | 4.34 | 
CC(C)=CCNC(=O)C1(C#N)CCN(C(=O)Nc2ccccc2)CC1 [IV-42] | 2.26 | 
C#CCOC(=O)C1(C#N)CCN(C(=O)Cn2nc(C(F)F)cc2C(F)F)CC1 [IV-4] | 2.52 | 
